Source: patent EP4775208A1, “USE OF PRMT5 INHIBITOR IN TREATMENT OF TUMORS OR CANCERS” (Apeiron Therapeutics (Hong Kong) Ltd., priority 2023, dated 2025)

Tests used:
[1] = system: HCT-116 MTAP wild-type cells; assay: Inhibition of proliferation of HCT-116 MTAP wild-type cells (Cell-Titer Glo); assay type: cell-based; conditions: 8 days
Description: Test 2: Compound's inhibitory activity on proliferation of HCT-116 MTAP wild-type cells.
Materials and Cells: HCT-116 MTAP wild-type cells obtained from Kyinno Bio (China); RPMI-1640 medium, fetal bovine serum, and penicillin-streptomycin purchased from Thermo Fisher Scientific (America); 384-well plates from PerkinElmer (America); Cell-Titer Glo assay kit from Promega (America).
Cell Culture: HCT116 MTAP wild-type cells were cultured in RPMI 1640 medium containing 10% fetal bovine serum and 1% penicillin-streptomycin at 37°C, 5% CO2. Only cells in logarithmic growth phase were used for experiments.
(§1) Cell Proliferation Inhibition Assay: The compound's inhibitory activity on HCT-116 MTAP wild-type cells was assessed using the Cell-Titer Glo assay kit. Adjusting cell concentration, 40 µL was seeded into a 384-well plate and cultured overnight at 37°C, 5% CO2. Each well received 40 nL of the compound, achieving concentrations from 0 to 10,000 nM (starting concentration 10,000 nM, 3-fold dilution, 10 points), with 0.1% DMSO. The cell plate was incubated for 8 days at 37°C, 5% CO2. Cell-Titer Glo reagent (40 µL) was added to measure cell viability.

[2] = system: HCT-116 MTAP(-/-) deficient cells; assay: Inhibition of proliferation of HCT-116 MTAP(-/-) deficient cells (Cell-Titer Glo); assay type: cell-based; conditions: 8 days
Description: Test 1: Compound's inhibitory activity on proliferation of HCT-116 MTAP(-/-) deficient cells.
Materials and Cells: HCT-116 MTAP(-/-) deficient cells obtained from Kyinno Bio (China); RPMI-1640 medium, fetal bovine serum, and penicillin-streptomycin purchased from Thermo Fisher Scientific (America); 384-well plates from PerkinElmer (America); Cell-Titer Glo assay kit from Promega (America).
Cell Culture: HCT116 MTAP(-/-) deficient cells were cultured in RPMI 1640 medium containing 10% fetal bovine serum and 1% penicillin-streptomycin at 37°C, 5% CO2. Only cells in logarithmic growth phase were used for experiments.
as §1, with “MTAP(-/-) deficient” for “MTAP wild-type”

Molecule	IC50 ([1]; Homo sapiens, HCT-116, 192 h)	IC50 ([2]; Homo sapiens, HCT-116, 192 h)	IC50 [1]	IC50 [2]
CC1OC[C@@H](N(C)C(=O)c2cc3c(cn2)nc(N)c2cncn23)c2ccc(C(F)(F)F)cc21 (stereo partly drawn) [Example 50, 4-amino-N-methyl-N-((4S)-1-methyl-7-(trifluoromethyl)isochroman-4-yl)imidazo[1,5-a]pyrido[3,4-e]pyrazine-8-carboxamide]	196 nM	4.2 nM	–	–
CN(C(=O)c1ccc2nc(N)c3cnc(Br)n3c2c1)[C@@H]1COc2cc(C(F)(F)F)ccc21 [Example 111, (S)-4-amino-1-bromo-N-methyl-N-(6-(trifluoromethyl)-2,3-dihydrobenzofuran-3-yl)imidazo[1,5-a]quinoxaline-8-carboxamide]	> 10000 nM	500 nM	–	–
CN(C(=O)c1cc2c(cc1F)nc(N)c1cncn12)[C@@H]1COC(C)(C)c2cc(C(F)(F)F)ccc21 (single isomer, unassigned) [Example 135]	1960 nM	9.3 nM	–	–
Nc1nc2ccc(C(=O)N(C3CC3)C3COc4cc(C(F)(F)F)ccc43)cc2n2cncc12 (stereo not drawn) [Example 73, 4-amino-N-cyclopropyl-N-(6-(trifluoromethyl)-2,3-dihydrobenzof uran-3-yl)imidazo[1,5-a]quinoxaline-8-carb oxamide]	4620 nM	55.5 nM	–	–
CN(C(=O)c1ccc2nc(N)c3cncn3c2c1)[C@@H]1COc2cc(N)ccc21 [Example 54, (S)-4-amino-N-(6-amino-2,3-dihydrobenzof uran-3-yl)-N-methyli midazo[1,5-a]quinoxa line-8-carboxamide]	> 10000 nM	2500 nM	–	–
Cc1cc(-c2ccc3c(c2)OCC[C@H]3N(C)C(=O)c2cc3c(cc2F)nc(N)c2cncn23)on1 [Example 116, (R)-4-amino-7-fluoro-N-methyl-N-(7-(3-methylisoxazol-5-yl)chroman-4-yl)imidazo[1,5-a]quinoxaline-8-carb oxamide]	> 10000 nM	109 nM	–	–
CN(C(=O)c1ccc2nc(N)c3cncn3c2c1)[C@@H]1CCc2cc(C(F)(F)F)ccc21 [Example 18, (R)-4-amino-N-methy 1-N-(5-(trifluoromethy 1)-2,3-dihydro-1H-inden-1-yl)imidazo[1,5-a]quinoxaline-8-carbox amide]	4330 nM	14.5 nM	–	–
CN(C(=O)c1cc2c(cc1Cl)nc(N)c1cncn12)[C@@H]1COc2cc(Br)ccc21 [Example 12, (S)-4-amino-N-(6-bromo-2,3-dihydrobenzof uran-3-yl)-7-chloro-N -methylimidazo[1,5-a] quinoxaline-8-carbox amide]	1110 nM	6.1 nM	–	–
CN(C(=O)c1ccc2nc(N)c3cncn3c2c1)[C@@H]1COc2cc(-c3cnn(C)c3)ccc21 [Example 2, (S)-4-amino-N-methy 1-N-(6-(1-methyl-1H-pyrazol-4-yl)-2,3-dihydrobenzofuran-3-yl)i midazo[1,5-a]quinoxa line-8-carboxamide]	6670 nM	61 nM	–	–
(R)-4-amino-N-(6-cya no-2,3-dihydrobenzof uran-3-yl)-N-cyclopro pylimidazo[1,5-a]quin oxaline-8-carboxamid e [Example 91]	–	–	> 20000 nM	2180 nM
CN(C(=O)c1cc2c(cc1F)nc(N)c1cncn12)C1COC(C)(C)c2cc(C(F)(F)F)ccc21 (stereo not drawn) [Example 13, 4-amino-N-(1,1-dimethyl-7-(trifluoromethyl)isochroman-4-yl)-7-f luoro-N-methylimidaz o[1,5-a]quinoxaline-8-carboxamide]	2510 nM	15.7 nM	–	–
Cc1cc(C(=O)N(C)[C@@H]2COc3cc(C(F)(F)F)ccc32)cc2c1nc(N)c1cncn12 [Example 37, (S)-4-amino-N,6-dime thyl-N-(6-(trifluoromethyl)-2,3-dihydrobenzofuran-3-yl)imidazo[1 ,5-a]quinoxaline-8-car boxamide]	> 10000 nM	> 3000 nM	–	–
CN(C(=O)c1cc2c(cn1)nc(N)c1cncn12)C1CCc2ccccc21 (stereo not drawn) [Example 125, 4-amino-N-(2,3-dihydro-1H-inden-1-yl)-N-methylimidazo[1,5-a] pyrido[3,4-e]pyrazine-8-carboxamide]	> 10000 nM	2450 nM	–	–
CN(C(=O)c1ccc2nc(N)c3c(C(N)=O)ncn3c2c1)[C@@H]1COc2cc(C(F)(F)F)ccc21 [Example 132, (S)-4-amino-N8-methyl-N8-(6-(trifluoromethyl)-2,3-dihydrobenzofuran-3-yl)imidazo[1,5-a]quinoxaline-3,8-dicarboxamide]	> 10000 nM	> 3000 nM	–	–
CN(C(=O)c1cc2c(cc1F)nc(N)c1cncn12)C1CSc2cc(C(F)(F)F)ccc21 (stereo not drawn) [Example 129, 4-amino-7-fluoro-N-methyl-N-(6-(trifluoromethyl)-2,3-dihydrobenzo[b]thiophen-3-yl) imidazo[1,5-a]quinox aline-8-carboxamide]	2680 nM	14.5 nM	–	–
CN(C(=O)c1cc2c(cc1F)nc(N)c1cncn12)[C@@H]1COc2cc(-c3cscn3)ccc21 [Example 46, (S)-4-amino-7-fluoro-N-methyl-N-(6-(thiazol-4-yl)-2,3-dihydrobenzofuran-3-yl)imidaz o[1,5-a]quinoxaline-8-carboxamide]	> 10000 nM	52.2 nM	–	–
N#Cc1ccc2c(c1)OCC2N(C(=O)c1ccc2nc(N)c3cncn3c2c1)C1CC1 (stereo not drawn) [Example 65, 4-amino-N-(6-cyano-2,3-dihydrobenzofuran-3-yl)-N-cyclopropyl imidazo[1,5-a]quinox aline-8-carboxamide]	5950 nM	95.3 nM	–	–
Cc1ncc(-c2ccc3c(c2)C(C)OC[C@H]3N(C)C(=O)c2ccc3nc(N)c4cncn4c3c2)cn1 (stereo partly drawn) [Example 21, 4-amino-N-methyl-N-((4S)-1-methyl-7-(2-methylpyrimidin-5-yl)isochroman-4-yl)imid azo[1,5-a]quinoxaline-8-carboxamide]	2130 nM	14.8 nM	–	–
(S)-4-amino-N-cyclop ropyl-N-(6-(trifluoro methyl)-2,3-dihydrob enzofuran-3-yl)imidaz o[1,5-a]pyrido[3,4-e]p yrazine-8-carboxamid e [Example 88]	–	–	1850 nM	24.1 nM
CN(C(=O)c1ccc2nc(N)c3cncn3c2c1)[C@H]1COCc2ccc(C(F)(F)F)cc21 (single isomer, unassigned) [Example 93]	> 10000 nM	> 3000 nM	–	–
CN(C(=O)c1ccc2nc(N)c3nnnn3c2c1)[C@@H]1COc2cc(C(F)(F)F)ccc21 [Example 58, (S)-4-amino-N-methyl-N-(6-(trifluoromethyl)-2,3-dihydrobenzofuran-3-yl)tetrazolo[1,5-a]quinoxaline-8-carboxamide]	> 10000 nM	> 3000 nM	–	–
CN(C(=O)c1ccc2nc(N)c3cncn3c2c1)[C@@H]1COc2cc(C(F)F)ccc21 [Example 112, (S)-4-amino-N-(6-(difluoromethyl)-2,3-dihydrobenzofuran-3-yl)-N-methylimidazo[1,5-a]quinoxaline-8-carboxamide]	> 10000 nM	338 nM	–	–
CN(C(=O)c1ccc2nc(N)c3cncn3c2c1)[C@@H]1COCc2ccc(C(F)(F)F)cc21 (single isomer, unassigned) [Example 94]	5170 nM	80.8 nM	–	–
CN(C(=O)c1ccc2nc(N)c3cncn3c2c1)[C@@H]1COc2cc(CF)ccc21 [Example 52, (S)-4-amino-N-(6-(fluoromethyl)-2,3-dihydrobenzofuran-3-yl)-N-methylimidazo[1,5-a] quinoxaline-8-carbox amide]	> 10000 nM	123 nM	–	–
CC1OC[C@@H](N(C)C(=O)c2cc3c(cc2Cl)nc(N)c2cncn23)c2ccc(F)cc21 (stereo partly drawn) [Example 61, 4-amino-7-chloro-N-( (4S)-7-fluoro-1-methylisochroman-4-yl)-N-methylimidazo[1,5-a] quinoxaline-8-carbox amide]	882 nM	7.7 nM	–	–
Nc1nc2cc(F)c(C(=O)N(C3CC3)C3COc4cc(N5CCOCC5)ccc43)cc2n2cncc12 (stereo not drawn) [Example 121, 4-amino-N-cyclopropyl-7-fluoro-N-(6-mor pholino-2,3-dihydrobenzofuran-3-yl)imidaz o[1,5-a]quinoxaline-8-carboxamide]	> 10000 nM	73.7 nM	–	–
Nc1nc2cnc(C(=O)N(C3CC3)C3COc4cc(C(F)(F)F)ccc43)cc2n2cncc12 (stereo not drawn) [Example 67, 4-amino-N-cyclopropyl-N-(6-(trifluoromethyl)-2,3-dihydrobenzof uran-3-yl)imidazo[1,5-a]pyrido[3,4-e]pyrazine-8-carboxamide]	3640 nM	35.6 nM	–	–
